Results reported in patent US12594276B2, “Inhibitors of human immunodeficiency virus replication” (ViiV Healthcare UK (No.5) Limited, priority 2024, dated 2026).
Read-outs that look alike come from different tables or passages of the source.

What was measured:
[1] = test system: recombinant NL4-3 virus (nef section replaced with Renilla luciferase gene) in MT-2 cells; assay: HIV cell culture assay (antiviral activity, luciferase readout); assay type: cell-based; conditions: Renilla, NL43, MT-2 cells infected for 4-5 days with recombinant NL4-3 Renilla luciferase virus
Summary of the method: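 Read-out: Renilla luciferase (live-cell substrate) in infected MT-2 cells after 4-5 d with serial compound dilutions. Virus from 293T transfection of the proviral clone, titered by luciferase in MT-2. EC50 via median effect equation fit.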

[2] = Compound cytotoxicity, XTT-based colorimetric assay; assay type: cell-based; conditions: human
Summary of the method: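 Follows the antiviral assay procedure, but with uninfected MT2 cells. On day 4, cell viability is measured by XTT-based colorimetry, giving CC50 values.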

[3] = uninfected MT2 cells, day 4, XTT, read-out: CC50

## CS(=O)(=O)Nc1nn(CCN2C[C@H](F)C[C@H](F)C2)c2c(-n3c([C@H](Cc4cc(F)cc(F)c4)NC(=O)Cn4nc(C(F)F)c5c4C(F)(F)[C@@H]4C[C@H]54)nc4nc(C5CCC(F)(F)CC5)cc(C5CC5)c4c3=O)ccc(Cl)c12 (atropisomer, axis not shown; (P)) [Example 322, N-[(1S)-1-[(3P)-3-(4-chloro-1-{2-[(3R,5S)-3,5-difluoropiperidin-1-yl]ethyl}-3-methanesulfonamido-1H-indazol-7-yl)-5-cyclopropyl-7-(4,4-difluorocyclohexyl)-4-oxo-3H,4H-pyrido[2,3-d]pyrimidin-2-yl]-2-(3,5-difluorophenyl)ethyl]-2-[(2S,4R)-9-(difluoromethyl)-5,5-difluoro-7,8-diazatricyclo[4.3.0.0^2,^4]nona-1(6),8-dien-7-yl]acetamide]
[1]
  EC50: 0.009 nM
[2]; [3]
  CC50 at 4 days: > 50 nM

## C[C@@H]1CN(CCn2nc(NS(C)(=O)=O)c3c(Cl)ccc(-n4c([C@H](Cc5cc(F)cc(F)c5)NC(=O)Cn5nc(C6CC6)c6c5C[C@@H]5C[C@H]65)nc5nc(C6CCC(F)(F)CC6)cc(C6CC6)c5c4=O)c32)C[C@H](C)O1 (atropisomer, axis not shown; (P)) [Example 324, N-[(1S)-1-[(3P)-3-(4-chloro-1-{2-[(2R,6S)-2,6-dimethylmorpholin-4-yl]ethyl}-3-methanesulfonamido-1H-indazol-7-yl)-5-cyclopropyl-7-(4,4-difluorocyclohexyl)-4-oxo-3H,4H-pyrido[2,3-d]pyrimidin-2-yl]-2-(3,5-difluorophenyl)ethyl]-2-[(2S,4S)-9-cyclopropyl-7,8-diazatricyclo[4.3.0.0^2,^4]nona-1(6),8-dien-7-yl]acetamide]
[1]
  EC50: 0.014 nM
[2]; [3]
  CC50 at 4 days: > 50 nM

## CS(=O)(=O)Nc1nn(CCN2C[C@H]3CC[C@@H](C2)O3)c2c(-n3c([C@H](Cc4cc(F)cc(F)c4)NC(=O)Cn4nc(C5CC5)c5c4C[C@@H]4C[C@H]54)nc4nc(C5CCC(F)(F)CC5)cc(C5CC5)c4c3=O)ccc(Cl)c12 (atropisomer, axis not shown; (P)) [Example 325, N-[(1S)-1-[(3P)-3-(4-chloro-3-methanesulfonamido-1-{2-[(1R,5S)-8-oxa-3-azabicyclo[3.2.1]octan-3-yl]ethyl}-1H-indazol-7-yl)-5-cyclopropyl-7-(4,4-difluorocyclohexyl)-4-oxo-3H,4H-pyrido[2,3-d]pyrimidin-2-yl]-2-(3,5-difluorophenyl)ethyl]-2-[(2S,4S)-9-cyclopropyl-7,8-diazatricyclo[4.3.0.0^2,^4]nona-1(6),8-dien-7-yl]acetamide]
[1]
  EC50: 0.009 nM
[2]; [3]
  CC50 at 4 days: > 50 nM

## CS(=O)(=O)Nc1nn(CCN2C[C@H](F)C[C@H](F)C2)c2c(-n3c([C@H](Cc4cc(F)cc(F)c4)NC(=O)Cn4nc(C5CC5)c5c4C[C@@H]4C[C@H]54)nc4nc(C5CCC(F)(F)CC5)cc(C5CC5)c4c3=O)ccc(Cl)c12 (atropisomer, axis not shown; (P)) [Example 327, N-[(1S)-1-[(3P)-3-(4-chloro-1-{2-[(3R,5S)-3,5-difluoropiperidin-1-yl]ethyl}-3-methanesulfonamido-1H-indazol-7-yl)-5-cyclopropyl-7-(4,4-difluorocyclohexyl)-4-oxo-3H,4H-pyrido[2,3-d]pyrimidin-2-yl]-2-(3,5-difluorophenyl)ethyl]-2-[(2S,4S)-9-cyclopropyl-7,8-diazatricyclo[4.3.0.0^2,^4]nona-1(6),8-dien-7-yl]acetamide]
[1]
  EC50: 0.008 nM
[2]; [3]
  CC50 at 4 days: > 50 nM

## CS(=O)(=O)Nc1nn(CCN2CCC(F)(F)C2)c2c(-n3c([C@H](Cc4cc(F)cc(F)c4)NC(=O)Cn4nc(C(F)F)c5c4C(F)(F)[C@@H]4C[C@H]54)nc4nc(C5CCC(F)(F)CC5)cc(C5CC5)c4c3=O)ccc(Cl)c12 (atropisomer, axis not shown; (P)) [Example 354, N-[(1S)-1-[(3P)-3-{4-chloro-1-[2-(3,3-difluoropyrrolidin-1-yl)ethyl]-3-methanesulfonamido-1H-indazol-7-yl}-5-cyclopropyl-7-(4,4-difluorocyclohexyl)-4-oxo-3H,4H-pyrido[2,3-d]pyrimidin-2-yl]-2-(3,5-difluorophenyl)ethyl]-2-[(2S,4R)-9-(difluoromethyl)-5,5-difluoro-7,8-diazatricyclo[4.3.0.0^2,^4]nona-1(6),8-dien-7-yl]acetamide]
[1]
  EC50: 0.022 nM
[2]; [3]
  CC50 at 4 days: > 50 nM

## COC[C@H]1CN(CCn2nc(NS(C)(=O)=O)c3c(Cl)ccc(-n4c([C@H](Cc5cc(F)cc(F)c5)NC(=O)Cn5nc(C(F)F)c6c5C(F)(F)[C@@H]5C[C@H]65)nc5nc(C6CCC(F)(F)CC6)ccc5c4=O)c32)CCO1 (atropisomer, axis not shown; (P)) [Example 356, N-[(1S)-1-[(3P)-3-(4-chloro-3-methanesulfonamido-1-{2-[(2R)-2-(methoxymethyl)morpholin-4-yl]ethyl}-1H-indazol-7-yl)-7-(4,4-difluorocyclohexyl)-4-oxo-3H,4H-pyrido[2,3-d]pyrimidin-2-yl]-2-(3,5-difluorophenyl)ethyl]-2-[(2S,4R)-9-(difluoromethyl)-5,5-difluoro-7,8-diazatricyclo[4.3.0.0^2,^4]nona-1(6),8-dien-7-yl]acetamide]
[1]
  EC50: 0.029 nM
[2]; [3]
  CC50 at 4 days: > 50 nM

## C[C@@H]1CN(CCn2nc(NS(C)(=O)=O)c3c(Cl)ccc(-n4c([C@H](Cc5cc(F)cc(F)c5)NC(=O)Cn5nc(C(F)F)c6c5C(F)(F)[C@@H]5C[C@H]65)nc5nc(C6CCC(F)(F)CC6)ccc5c4=O)c32)CCO1 (atropisomer, axis not shown; (P)) [Example 360]
[1]
  EC50: 0.01 nM
[2]; [3]
  CC50 at 4 days: > 50 nM

## CS(=O)(=O)Nc1nn(CCN2CCC(F)CC2)c2c(-n3c([C@H](Cc4cc(F)cc(F)c4)NC(=O)Cn4nc(C(F)F)c5c4C(F)(F)[C@@H]4C[C@H]54)nc4nc(C5CCC(F)(F)CC5)cc(C(F)F)c4c3=O)ccc(Cl)c12 (atropisomer, axis not shown; (P)) [Example 370, N-[(1S)-1-[(3P)-3-{4-chloro-1-[2-(4-fluoropiperidin-1-yl)ethyl]-3-methanesulfonamido-1H-indazol-7-yl}-7-(4,4-difluorocyclohexyl)-5-(difluoromethyl)-4-oxo-3H,4H-pyrido[2,3-d]pyrimidin-2-yl]-2-(3,5-difluorophenyl)ethyl]-2-[(2S,4R)-9-(difluoromethyl)-5,5-difluoro-7,8-diazatricyclo[4.3.0.0^2,^4]nona-1(6),8-dien-7-yl]acetamide]
[1]
  EC50: 0.009 nM
[2]; [3]
  CC50 at 4 days: > 20 nM

## CS(=O)(=O)Nc1nn(CCN2CCC(F)CC2)c2c(-n3c([C@H](Cc4cc(F)cc(F)c4)NC(=O)Cn4nc(C5CC5)c5c4C[C@@H]4C[C@H]54)nc4nc(C5CCC(F)(F)CC5)cc(C(F)F)c4c3=O)ccc(Cl)c12 (atropisomer, axis not shown; (P)) [Example 371, N-[(1S)-1-[(3P)-3-{4-chloro-1-[2-(4-fluoropiperidin-1-yl)ethyl]-3-methanesulfonamido-1H-indazol-7-yl}-7-(4,4-difluorocyclohexyl)-5-(difluoromethyl)-4-oxo-3H,4H-pyrido[2,3-d]pyrimidin-2-yl]-2-(3,5-difluorophenyl)ethyl]-2-[(2S,4S)-9-cyclopropyl-7,8-diazatricyclo[4.3.0.0^2,^4]nona-1(6),8-dien-7-yl]acetamide]
[1]
  EC50: 0.009 nM
[2]; [3]
  CC50 at 4 days: > 20 nM

## COCCCn1nc(NS(C)(=O)=O)c2c(Cl)ccc(-n3c([C@H](Cc4cc(F)cc(F)c4)NC(=O)Cn4nc(C(F)F)c5c4C(F)(F)[C@@H]4C[C@H]54)nc4nc(C5CCC(F)(F)CC5)cc(C5CC5)c4c3=O)c21 (atropisomer, axis not shown; (P)) [Example 375, N-[(1S)-1-[(3P)-3-[4-chloro-3-methanesulfonamido-1-(3-methoxypropyl)-1H-indazol-7-yl]-5-cyclopropyl-7-(4,4-difluorocyclohexyl)-4-oxo-3H,4H-pyrido[2,3-d]pyrimidin-2-yl]-2-(3,5-difluorophenyl)ethyl]-2-[(2S,4R)-9-(difluoromethyl)-5,5-difluoro-7,8-diazatricyclo[4.3.0.0^2,^4]nona-1(6),8-dien-7-yl]acetamide]
[1]
  EC50: 0.014 nM
[2]; [3]
  CC50 at 4 days: > 20 nM

## COCCCn1nc(NS(C)(=O)=O)c2c(Cl)ccc(-n3c([C@H](Cc4cc(F)cc(F)c4)NC(=O)Cn4nc(C5CC5)c5c4C[C@@H]4C[C@H]54)nc4nc(C5CCC(F)(F)CC5)cc(C5CC5)c4c3=O)c21 (atropisomer, axis not shown; (P)) [Example 376, N-[(1S)-1-[(3P)-3-[4-chloro-3-methanesulfonamido-1-(3-methoxypropyl)-1H-indazol-7-yl]-5-cyclopropyl-7-(4,4-difluorocyclohexyl)-4-oxo-3H,4H-pyrido[2,3-d]pyrimidin-2-yl]-2-(3,5-difluorophenyl)ethyl]-2-[(2S,4S)-9-cyclopropyl-7,8-diazatricyclo[4.3.0.0^2,^4]nona-1(6),8-dien-7-yl]acetamide]
[1]
  EC50: 0.016 nM
[2]; [3]
  CC50 at 4 days: > 20 nM

## CS(=O)(=O)Nc1nn(CCN2[C@@H]3CC[C@H]2COC3)c2c(-n3c([C@H](Cc4cc(F)cc(F)c4)NC(=O)Cn4nc(C5CC5)c5c4C[C@@H]4C[C@H]54)nc4nc(C5CCC(F)(F)CC5)ccc4c3=O)ccc(Cl)c12 (atropisomer, axis not shown; (P)) [Example 381, N-[(1S)-1-[(3P)-3-(4-chloro-3-methanesulfonamido-1-{2-[(1R,5S)-3-oxa-8-azabicyclo[3.2.1]octan-8-yl]ethyl}-1H-indazol-7-yl)-7-(4,4-difluorocyclohexyl)-4-oxo-3H,4H-pyrido[2,3-d]pyrimidin-2-yl]-2-(3,5-difluorophenyl)ethyl]-2-[(2S,4S)-9-cyclopropyl-7,8-diazatricyclo[4.3.0.0^2,^4]nona-1(6),8-dien-7-yl]acetamide]
[1]
  EC50: 0.007 nM
[2]
  CC50 at 4 days: > 20 nM
